Some test systems named below: OVCAR-3 ovarian; NCI/ADR-RES ovarian; SN12C renal; OVCAR-4 ovarian; HOP-92 NSCLC; SF-268 CNS; HT29 colon; SF-295 CNS; NCI-H460 lung; HOP-62 NSCLC.
Common to all, as to test: inhibition of tumour cell growth, NCI panel, 48 h

SMILES strings stand for the structures.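 Growth conditions: 96-well plates. Treatment: test compound, 48 hours, 5 concentrations. Analysis: linear interpolation between bracketing concentrations; unreached endpoints set to highest concentration. GI50: concentration for 50% inhibition of growth. Definition used: TGI = concentration required for complete inhibition of growth.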

As to `NC(N)=NS(=O)(=O)c1ccc(N/N=C2/CCOC2=O)cc1`, the TGI in the assay on OVCAR-3 ovarian, in the assay with NCI/ADR-RES ovarian, in the assay on SN12C renal, with OVCAR-4 ovarian, in the assay with HOP-92 NSCLC and in the assay on SF-268 CNS was greater than 100 µM each time. Besides, the TGI in the assay with HT29 colon is greater than 100 µM; in the assay with SF-295 CNS it was greater than 100 µM; with NCI-H460 lung, greater than 100 µM; in the assay on HOP-62 NSCLC it was 77.8 µM.

Take `CC12C3C4C1C1C2C3C41CO` (stereo not given): the TGI with OVCAR-3 ovarian, in the assay on NCI/ADR-RES ovarian, in the assay on SN12C renal, with OVCAR-4 ovarian, in the assay on HOP-92 NSCLC and in the assay on HT29 colon was greater than 100 µM throughout. The TGI with SF-295 CNS and in the assay with NCI-H460 lung was greater than 100 µM in each case.

Regarding `COc1cc(C(=O)O[C@H](C(=O)NCCCNC(=O)[C@@H](OC(=O)c2cc(OC)cc3c(C)cccc23)[C@]2(C)CO2)[C@]2(C)CO2)c2cccc(C)c2c1`, the GI50 in the assay on NCI/ADR-RES ovarian is 0.154 µM; with OVCAR-4 ovarian it was less than 0.01 µM; with HOP-92 NSCLC it was less than 0.0113 µM; in the assay with SF-268 CNS, less than 0.01 µM; in the assay on HT29 colon, less than 0.0121 µM; with NCI-H460 lung it was less than 0.019 µM. Moreover, the TGI in the assay with NCI/ADR-RES ovarian stood at 0.97 µM; in the assay on SN12C renal, 0.486 µM; in the assay with OVCAR-4 ovarian, 0.231 µM; with HOP-92 NSCLC, 0.15 µM; in the assay with SF-295 CNS, 0.562 µM; in the assay with NCI-H460 lung, 0.902 µM.

`CCOC(=O)/C=C(\C(=O)OCC)n1ccc(=O)n(Cc2cnnn2CCCCOC(C)=O)c1=O`: the TGI with OVCAR-3 ovarian came to 21.5 µM; with NCI/ADR-RES ovarian, 40.1 µM; in the assay on SN12C renal, 45.3 µM; in the assay on OVCAR-4 ovarian, 30.2 µM; with HOP-92 NSCLC it was 5.63 µM; in the assay with SF-268 CNS it was 34.1 µM. Further, the TGI was 23.5 µM with HT29 colon, greater than 59.8 µM in the assay on SF-295 CNS, 26 µM with NCI-H460 lung and 41.9 µM with HOP-62 NSCLC.

Consider `CSC1NC(c2ccccc2)=C(C#N)C(=O)N1C1OCC(OC(C)=O)C(OC(C)=O)C1OC(C)=O` (stereo not given), for which the TGI in the assay with OVCAR-3 ovarian, with NCI/ADR-RES ovarian, in the assay with SN12C renal, with OVCAR-4 ovarian, with HOP-92 NSCLC and in the assay with SF-268 CNS was greater than 100 µM each time. The TGI in the assay on HT29 colon, with SF-295 CNS, with NCI-H460 lung and in the assay with HOP-62 NSCLC was greater than 100 µM throughout.

In the case of `O=c1[nH]nc(NCc2ccccc2)c2nnn(Cc3ccccc3)c12`, the TGI in the assay on OVCAR-3 ovarian, with NCI/ADR-RES ovarian, in the assay with SN12C renal, in the assay on OVCAR-4 ovarian, in the assay with HOP-92 NSCLC and with HT29 colon was greater than 100 µM each time. Besides, the TGI with SF-295 CNS, in the assay with NCI-H460 lung and with HOP-62 NSCLC was greater than 100 µM in each case.

On to `COC(=O)C1Cc2ccc(O)c(O)c2CN1` (stereo not given), for which the TGI in the assay with OVCAR-3 ovarian was greater than 100 µM; with NCI/ADR-RES ovarian, 48.6 µM; in the assay on SN12C renal, 30 µM; with OVCAR-4 ovarian it was 39.3 µM; with HOP-92 NSCLC, 86.7 µM; with HT29 colon, 55.7 µM. Also, the results for the TGI in the assay with SF-295 CNS, with NCI-H460 lung and in the assay on HOP-62 NSCLC were 20.4 µM, greater than 100 µM and greater than 100 µM, respectively.

Consider `NS(=O)(=O)c1nnc(NC(=O)C23CC4CC(CC(C4)C2)C3)s1`, for which the TGI in the assay with OVCAR-3 ovarian is greater than 100 µM; with NCI/ADR-RES ovarian it was greater than 100 µM; in the assay with SN12C renal, greater than 100 µM; in the assay on OVCAR-4 ovarian, 3.74 µM; in the assay on HOP-92 NSCLC, greater than 100 µM; with SF-268 CNS, greater than 100 µM. The TGI in the assay with SF-295 CNS, in the assay with NCI-H460 lung and with HOP-62 NSCLC was greater than 100 µM each time.

For the compound `COc1cc(CSc2ccc(O)cc2)cc(OC)c1OC`, the TGI with OVCAR-3 ovarian is greater than 100 µM; with NCI/ADR-RES ovarian it was 83.6 µM; in the assay with SN12C renal, greater than 100 µM; in the assay on HOP-92 NSCLC it was 71.3 µM; in the assay with SF-268 CNS, greater than 100 µM; in the assay on HT29 colon, greater than 100 µM. Also, the TGI in the assay on SF-295 CNS is 95 µM; in the assay on NCI-H460 lung, greater than 100 µM; in the assay on HOP-62 NSCLC, greater than 100 µM.

On to `CCOC(=O)c1nc2ccc(C(F)(F)F)cc2nc1Nc1cc(OC)c(OC)c(OC)c1`, for which the TGI in the assay with OVCAR-3 ovarian, in the assay with NCI/ADR-RES ovarian, in the assay with SN12C renal, in the assay with HOP-92 NSCLC, in the assay on SF-268 CNS and in the assay with HT29 colon was greater than 100 µM each time. The TGI in the assay on SF-295 CNS, in the assay with NCI-H460 lung and with HOP-62 NSCLC was greater than 100 µM throughout.

Consider `Cc1ccc(C(=O)Nc2ccc(CP(=O)(O)O)cc2)cc1NC(=O)c1cccc(N)c1`, for which the TGI in the assay on OVCAR-3 ovarian, with NCI/ADR-RES ovarian, in the assay with SN12C renal, with OVCAR-4 ovarian, with HOP-92 NSCLC and in the assay with SF-268 CNS was greater than 100 µM in each case. Besides, the TGI in the assay with HT29 colon, in the assay with SF-295 CNS and in the assay with HOP-62 NSCLC was greater than 100 µM throughout.

In the case of `COc1cc(C2C3=C(COC3=O)Oc3cc4c(cc32)OCO4)ccc1O` (stereo not given), the TGI in the assay with OVCAR-3 ovarian was 0.471 µM; with NCI/ADR-RES ovarian, greater than 100 µM; with SN12C renal, greater than 100 µM; in the assay on OVCAR-4 ovarian, greater than 75.3 µM; in the assay with HOP-92 NSCLC it was greater than 78.1 µM; with SF-268 CNS, greater than 66.4 µM. The values for the TGI in the assay on HT29 colon, in the assay with NCI-H460 lung and with HOP-62 NSCLC were 37.9 µM, greater than 100 µM and greater than 100 µM, respectively.

As for `CC(=O)Oc1cc(S(=O)(=O)Nc2n[nH]c(Nc3ccc(C)cc3)n2)c(S)cc1Cl`, the TGI in the assay on OVCAR-3 ovarian, with NCI/ADR-RES ovarian, in the assay on SN12C renal, in the assay with OVCAR-4 ovarian, in the assay on HOP-92 NSCLC and in the assay with HT29 colon was greater than 100 µM in each case. Further, the TGI with SF-295 CNS and with NCI-H460 lung was greater than 100 µM throughout.

Take `COC(=O)C1CCC(=S)N1C(=O)OCc1ccccc1` (stereo not given): the TGI with OVCAR-3 ovarian, in the assay with NCI/ADR-RES ovarian, in the assay with OVCAR-4 ovarian, in the assay on HOP-92 NSCLC, in the assay with SF-268 CNS and in the assay with HT29 colon was greater than 100 µM each time. For the same compound, the TGI in the assay with SF-295 CNS, with NCI-H460 lung and in the assay with HOP-62 NSCLC was greater than 100 µM throughout.

The values are drawn from PubChem BioAssay (NCI).
